In this assay the target is T1, human TMEM16A (TMEM16Aabc variant) (Homo sapiens, UniProt Q5XXA6, DEL476-501).
T1 sequence (Q5XXA6 with tags, fused parts or gaps isoform Q5XXA6-5 DEL539-564): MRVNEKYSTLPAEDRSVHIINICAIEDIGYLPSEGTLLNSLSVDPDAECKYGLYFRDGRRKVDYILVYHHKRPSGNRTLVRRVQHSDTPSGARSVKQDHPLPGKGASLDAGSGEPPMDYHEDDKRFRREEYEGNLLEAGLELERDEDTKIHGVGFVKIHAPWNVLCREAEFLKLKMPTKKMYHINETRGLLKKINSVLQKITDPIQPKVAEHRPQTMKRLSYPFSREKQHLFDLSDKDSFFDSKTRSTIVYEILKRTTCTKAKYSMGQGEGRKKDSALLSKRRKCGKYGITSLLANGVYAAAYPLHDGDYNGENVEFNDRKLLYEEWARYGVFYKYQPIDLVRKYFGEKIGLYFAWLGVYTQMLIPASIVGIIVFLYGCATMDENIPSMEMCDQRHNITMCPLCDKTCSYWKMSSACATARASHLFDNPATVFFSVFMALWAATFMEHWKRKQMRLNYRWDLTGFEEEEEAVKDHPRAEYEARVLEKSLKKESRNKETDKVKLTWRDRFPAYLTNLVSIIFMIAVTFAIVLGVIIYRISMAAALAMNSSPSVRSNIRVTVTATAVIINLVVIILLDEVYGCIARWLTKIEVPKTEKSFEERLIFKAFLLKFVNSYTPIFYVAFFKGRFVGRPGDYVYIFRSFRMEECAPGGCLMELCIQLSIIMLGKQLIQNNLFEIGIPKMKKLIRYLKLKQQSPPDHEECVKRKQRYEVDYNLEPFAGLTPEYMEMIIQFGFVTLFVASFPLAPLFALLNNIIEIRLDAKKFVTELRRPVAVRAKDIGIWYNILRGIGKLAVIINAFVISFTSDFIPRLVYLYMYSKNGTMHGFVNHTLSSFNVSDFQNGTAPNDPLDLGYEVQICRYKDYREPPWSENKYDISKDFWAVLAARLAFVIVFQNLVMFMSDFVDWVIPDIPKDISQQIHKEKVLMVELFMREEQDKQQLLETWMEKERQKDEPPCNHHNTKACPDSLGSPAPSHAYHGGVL
Description: Automated whole-cell patch clamp (Qpatch) assay to detect TMEM16A activity in recombinant cells. In kind it is cell-based. Particulars: for activation at 3.33 µM: 3.33 μM solution of test compound, percentage increase of baseline TMEM16A current, FRT cells stably expressing human TMEM16A, intracellular calcium at EC20, +70 mV, read-out: % Potentiation @ 3.33 μM Avg; for EC50: calculated from cumulative concentration response curve, FRT-TMEM16A cells, whole-cell patch clamp (Qpatch). On the procedure:
Automated Whole-Cell Patch Clamp Assay to Detect TMEM16A Activity in Recombinant Cells
Cell Culture and Preparation
Fisher rat thyroid (FRT) cells stably expressing human TMEM16A (TMEM16Aabc variant; Dr Luis Galietta, Insituto Giannina, Italy) were cultured in T-75 flasks in Hams F-12 media with Coon's modification (Sigma) supplemented with 10% (v/v) foetal bovine serum, penicillin-streptomycin (10,000 U/mL/10000 μg/mL), G-418 (750 μg/mL), L-glutamine (2 mM) and sodium bicarbonate solution (7.5% v/v). At ˜90% confluence cells were harvested for experiments by detachment with a 2:1 (v/v) mixture of Detachin (BMS Biotechnology) and 0.25% (w/v) trypsin-EDTA. Cells were diluted to a density of 3.5-4.5×10^6 cells/mL with media consisting of CHO-S-SFM II (Sigma), 25 mM HEPES (Sigma) and Soy bean trypsin inhibitor (Sigma).
Whole-Cell Patch Clamp Recording
FRT-TMEM16A cells were whole-cell patch clamped using an automated planar patch clamp system (Qpatch, Sophion). Briefly, once high resistance (GOhm) seals were established between the cells and the planar recording array the patch was ruptured using suction pulses to establish the whole-cell recording configuration of the patch clamp technique. The assay employed the following solutions (all reagents Sigma): • Intracellular solution (mM): N-methyl-D-glucamine 130, CaCl2 18.2, MgCl2 1, HEPES 10, EGTA 10, BAPTA 20, Mg-ATP 2, pH 7.25, 325mOsm with sucrose. • Extracellular solution (mM): N-methyl-D-glucamine 130, CaCl2 2, MgCl2 1, HEPES 10, pH 7.3, 320 mOsm with sucrose.
The intracellular solution buffers intracellular calcium at levels required to give ˜20% activation of the maximal TMEM16A mediated current (EC20 for calcium ions). Cells were voltage clamped at a holding potential of −70 mV and a combined voltage step (to +70 mV)/ramp (−90 my to +90 mV) was applied at 0.05 Hz. After a period of current stabilisation test compounds, solubilised in 100% (v/v) DMSO and subsequently diluted into extracellular solution, were applied to generate a cumulative concentration response curve. Each concentration of test compound was incubated for 5 minutes before addition of the next concentration. After the final concentration was tested a supramaximal concentration of either a known active positive modulator or the TMEM16A inhibitor, CaCCinhA01 (Del La Fuente et al, 2008) was added to define the upper and lower limits of the assay.
Compound activity was quantified by measuring the increase in current upon compound addition and expressing this as a percentage increase of baseline TMEM16A current level. Percentage increases in current were determined for each concentration and the data plotted as a function of concentration using either the Qpatch software or Graphpad Prism v6.05 providing the concentration which gave 50% of its maximal effect (EC50) and maximum efficacy (percentage of baseline increase).
In FIG. 1, IBL equals baseline current, I[#1] equals the peak current during test compound concentration 1 incubation period and so on.
Peak TMEM16A current at +70 mV was plotted as a function of time over the assay period. Baseline current (IBL) was measured after a period of stabilisation. The increase in current for each compound addition was determined by taking the peak current during the incubation period and subtracting the current from the previous recording period and then expressing this as a percentage of the baseline current. For test compound concentration 1 in FIG. 1 this is:
For each additional concentration tested the increase in current was determined by subtracting the current from the previous incubation period and normalising the baseline value—for test concentration 2 in FIG. 1 this is:
The values for each test concentration were plotted as a cumulative function of concentration e.g. for test concentration two this would be the sum of the peak changes measured during concentration one plus concentration two.

The structures appear in SMILES notation.

The EC50 is the concentration that produces a half-maximal response. For the compound `CC(C)(C)NC(=O)c1ccc(NC(=O)Cc2cc(Cl)ccc2O)s1` [Example 1, N-tert-Butyl-5-[[2-(5-chloro-2-hydroxy-phenyl)acetyl]amino]thiophene-2-carboxamide], the activation at 3.33 µM came to 107% and the EC50 is 42 nM.

Turning to `CC(C)(C)NC(=O)c1csc(NC(=O)Cc2cc(Cl)ccc2O)c1` [Example 1.1, N-tert-Butyl-5-[[2-(5-chloro-2-hydroxy-phenyl)acetyl]amino]thiophene-3-carboxamide], the activation at 3.33 µM is 184% and the half-maximal effective concentration (EC50) is 440 nM.

With `CC(C)(C)NC(=O)c1cc(NC(=O)Cc2cc(Cl)ccc2O)cs1` [Example 1.2, N-tert-Butyl-4-[[2-(5-chloro-2-hydroxy-phenyl)acetyl]amino]thiophene-2-carboxamide], the activation at 3.33 µM amounted to 237% and the EC50 was 400 nM.

On to `CC(C)(C)C(=O)Nc1cccc(C(=O)NCc2cc(Cl)ccc2O)c1` [Example 2, N-[(5-Chloro-2-hydroxy-phenyl)methyl]-3-(2,2-dimethylpropanoylamino)benzamide], for which the activation at 3.33 µM was 127%.

For the compound `CC(C)(C)C(=O)Nc1ccnc(C(=O)NCc2cc(Cl)ccc2O)c1` [Example 3, N-[(5-Chloro-2-hydroxy-phenyl)methyl]-4-(2,2-dimethylpropanoylamino)pyridine-2-carboxamide], the activation at 3.33 µM was 81.3%.

For the compound `CC(C)(C)NC(=O)c1cc(C(=O)NCc2ccccc2O)ccn1` [Example 4, N2-tert-Butyl-N4-[(2-hydroxyphenyl)methyl]pyridine-2,4-dicarboxamide], the activation at 3.33 µM is 35.2%.

As to `CC(C)(C)NC(=O)c1cccc(C(=O)NCc2ccccc2O)c1` [Example 5, N1-tert-Butyl-N3-[(2-hydroxyphenyl)methyl]benzene-1,3-dicarboxamide], the activation at 3.33 µM was 41.2% and the 50% effective concentration (EC50) is 2910 nM.

Turning to `CC(C)(C)C(=O)Nc1cccc(NC(=O)Cc2cc(Cl)ccc2O)c1` [Example 6, N-[3-[[2-(5-Chloro-2-hydroxy-phenyl)acetyl]amino]phenyl]-2,2-dimethyl-propanamide], the activation at 3.33 µM turned out to be 68.1% and the EC50 is 992 nM.

For `CC(C)(C)C(=O)Nc1cc(NC(=O)Cc2cc(Cl)ccc2O)ccn1` [Example 7, N-[4-[[2-(5-Chloro-2-hydroxy-phenyl)acetyl]amino]-2-pyridyl]-2,2-dimethyl-propanamide], the activation at 3.33 µM is 156% and the concentration giving a half-maximal response (EC50) is 615 nM.

Take `O=C(Cc1cc(Cl)ccc1O)Nc1ccnc(NC(=O)C2CCCCC2)c1` [Example 7.1, N-[4-[[2-(5-Chloro-2-hydroxy-phenyl)acetyl]amino]-2-pyridyl]cyclohexane carboxamide]: the activation at 3.33 µM was determined as 120% and the EC50 is 1110 nM.

As for `CC(C)(C#N)NC(=O)c1ccc(NC(=O)Cc2cc(O)c(C(C)(C)C)cc2F)s1` [Example 8, 5-[[2-(4-tert-Butyl-2-fluoro-5-hydroxy-phenyl)acetyl]amino]-N-(1-cyano-1-methyl-ethyl)thiophene-2-carboxamide], the activation at 3.33 µM turned out to be 134% and the half-maximal effective concentration (EC50) was 85 nM.

Turning to `CC(C)(CO)c1cc(F)c(CC(=O)Nc2ccc(C(=O)NC3(C(F)(F)F)CC3)s2)cc1O` [Example 9, 5-[[2-[2-Fluoro-5-hydroxy-4-(2-hydroxy-1,1-dimethyl-ethyl)phenyl]acetyl]amino]-N-[1-(trifluoromethyl)cyclopropyl]thiophene-2-carboxamide], the activation at 3.33 µM was 134% and the concentration giving a half-maximal response (EC50) was 98 nM.

Values taken from patent US12415793B2, “Modulators of TMEM16A for treating respiratory disease” (TMEM16A Limited, priority 2020, dated 2025).
